Measurements published in ChEMBL document CHEMBL5335846, “Uncovering the Power of HSCCC: Separation of Diastereomeric and Regioisomeric Styrylpyrones from the Stem Bark of Goniothalamus leiocarpus” (J Nat Prod, 2024).
Calls of active or inactive are those of the source. No cut-off for these calls is given here.

What was measured:
[1] = Cytotoxicity against human LM3 cells assessed as inhibition of cell growth incubated for 24 hrs by MTT assay; type: functional, cell-based; details: LM3, 24 h
MHCC97H = experiment: Cytotoxicity against human MHCC97H cells assessed as inhibition of cell growth incubated for 24 hrs by MTT assay; type: functional, cell-based
HepG2 = experiment: Cytotoxicity against human HepG2 cells assessed as inhibition of cell growth incubated for 24 hrs by MTT assay; type: functional, cell-based; details: HepG2, 24 h
Staphylococcus aureus [2] = experiment: Potency index, ratio of test compound MIC to norfloxacin MIC for antibacterial activity against fluoroquinolone-resistant Staphylococcus aureus SA1199B assessed as inhibition of microbial growth; type: functional
Staphylococcus aureus [3] = experiment: Antibacterial activity against Staphylococcus aureus XU212 assessed as inhibition of microbial growth; type: functional
Staphylococcus aureus [4] = experiment: Synergistic antibacterial activity against Staphylococcus aureus […] assessed as streptomycin MIC; type: functional
Staphylococcus aureus [5] = experiment: Synergistic antibacterial activity against Staphylococcus aureus SA1199B assessed as fractional inhibitory concentration index in presence of norfloxacin; type: functional
LS-513 = experiment: Cytotoxicity against human LS-513 cells assessed as inhibition of cell growth incubated for 24 hrs by MTT assay; type: functional, cell-based; details: LS-513, 24 h
Staphylococcus aureus [6] = experiment: Synergistic antibacterial activity against Staphylococcus aureus SA1199B assessed as norfloxacin MIC; type: functional
[7] = Cytotoxicity against HEK293T cells assessed as inhibition of cell growth incubated for 24 hrs by MTT assay; type: toxicity, cell-based, HEK-293T; details: human
[8] = target: T1, Quinolone resistance protein NorA (Staphylococcus aureus) (UniProt P0A0J7); experiment: Inhibition of NorA efflux pump in norfloxacin-resisitant Staphylococcus aureus SA1199B overexpressing NorA gene assessed as reduction in EtBr efflux inhibition at 25 uM incubated for 20 mins by fluorometric assay
T1 sequence (whole entry): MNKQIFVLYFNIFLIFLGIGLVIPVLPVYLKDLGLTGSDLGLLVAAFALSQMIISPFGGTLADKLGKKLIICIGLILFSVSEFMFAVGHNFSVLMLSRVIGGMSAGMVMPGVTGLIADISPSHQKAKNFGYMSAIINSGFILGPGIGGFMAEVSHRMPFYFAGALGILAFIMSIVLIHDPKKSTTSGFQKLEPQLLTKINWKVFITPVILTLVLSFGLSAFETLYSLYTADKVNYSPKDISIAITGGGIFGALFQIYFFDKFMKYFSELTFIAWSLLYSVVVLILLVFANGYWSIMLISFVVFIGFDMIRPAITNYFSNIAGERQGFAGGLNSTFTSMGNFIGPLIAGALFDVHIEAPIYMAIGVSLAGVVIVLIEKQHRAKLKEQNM

Staphylococcus aureus [9] = experiment: Antibacterial activity against Staphylococcus aureus RN4220 assessed as inhibition of microbial growth; type: functional
Staphylococcus aureus [10] = experiment: Additive antibacterial activity against Staphylococcus aureus RN4220 assessed as fractional inhibitory concentration index in presence of streptomycin; type: functional
Staphylococcus aureus [11] = experiment: Synergistic antibacterial activity against Staphylococcus aureus RN4220 assessed as inhibition of microbial growth in presence of streptomycin; type: functional
COLO 205 = experiment: Cytotoxicity against human COLO 205 cells assessed as inhibition of cell growth incubated for 24 hrs by MTT assay; type: functional, cell-based; details: COLO 205, 24 h
Staphylococcus aureus [12] = experiment: Antibacterial activity against Staphylococcus aureus SA1199B assessed as inhibition of microbial growth; type: functional
Staphylococcus aureus [13] = experiment: Additive antibacterial activity against Staphylococcus aureus XU212 assessed as fractional inhibitory concentration index in presence of tetracycline; type: functional
Staphylococcus aureus [14] = experiment: Synergistic antibacterial activity against Staphylococcus aureus XU212 assessed as inhibition of microbial growth in presence of tetracycline; type: functional
SW-620 = experiment: Cytotoxicity against human SW620 cells assessed as inhibition of cell growth incubated for 24 hrs by MTT assay; type: functional, cell-based; details: SW-620, 24 h
Staphylococcus aureus [15] = experiment: Synergistic antibacterial activity against Staphylococcus aureus XU212 assessed as tetracyclin MIC; type: functional
Staphylococcus aureus [16] = experiment: Synergistic antibacterial activity against Staphylococcus aureus SA1199B assessed as inhibition of microbial growth in presence of norfloxacin; type: functional
Staphylococcus aureus [17] = experiment: Antibacterial activity against fluoroquinolone-resistant Staphylococcus aureus SA1199B assessed as inhibition of microbial growth; type: functional
Staphylococcus aureus [18] = experiment: Synergistic antibacterial activity against Staphylococcus aureus RN4220 assessed as fractional inhibitory concentration index in presence of streptomycin; type: functional

SMILES	IC50 [1] [µM]	IC50 (MHCC97H) [µM]	IC50 (HepG2) [µM]	Ratio (Staphylococcus aureus [2])	fractional inhibitory concentration index (FICI) (Staphylococcus aureus [5])	MIC (Staphylococcus aureus [6]) [µg/mL]	IC50 at 24 h [7] [µM]	inhibition [8]	MIC (Staphylococcus aureus [12]) [µg/mL]	MIC (Staphylococcus aureus [16]) [µg/mL]	further results
CNC(=O)c1cc(Oc2ccc(NC(=O)Nc3ccc(Cl)c(C(F)(F)F)c3)cc2)ccn1 [SORAFENIB]	9.2	15	14								
O=C1C=CC[C@@H]([C@H](O)[C@@H](c2ccccc2)c2c(O)cc(O)c3c2O[C@H](c2ccccc2)CC3=O)O1	> 100	> 100	> 100	4	0.31	32	> 100	Active	256	16	MIC (Staphylococcus aureus [3]): 512 µg/mL; MIC (Staphylococcus aureus [4]): 16 µg/mL; IC50 (LS-513): 2.4 µM; MIC (Staphylococcus aureus [9]): 64 µg/mL; fractional inhibitory concentration index (FICI) (Staphylococcus aureus [10]): 0.5; MIC (Staphylococcus aureus [11]): 16 µg/mL; IC50 (COLO 205): 12 µM; fractional inhibitory concentration index (FICI) (Staphylococcus aureus [13]): 0.62; MIC (Staphylococcus aureus [14]): 64 µg/mL; IC50 (SW-620): 3.9 µM; MIC (Staphylococcus aureus [15]): 64 µg/mL
O=C1C=CC[C@H]([C@@H](O)[C@H](Oc2c(O)cc3c(c2O)C(=O)C[C@@H](c2ccccc2)O3)c2ccccc2)O1	> 100	> 100	> 100	8	0.25	16	> 100		> 128	32	MIC (Staphylococcus aureus [17]): 16 µg/mL
O=C1C=CC[C@H]([C@@H](O)[C@H](c2ccccc2)c2c(O)cc(O)c3c2O[C@H](c2ccccc2)CC3=O)O1	> 100	> 100	> 100	4	0.37	32	> 100	Active	128	16	
CCn1cc(C(=O)O)c(=O)c2cc(F)c(N3CCNCC3)cc21 [NORFLOXACIN]									128		
O=C1C=CC[C@H]([C@H](O)[C@H](c2ccccc2)c2c(O)cc3c(c2O)C(=O)C[C@@H](c2ccccc2)O3)O1	> 100	> 100	> 100				> 100				
O=C1C=CC[C@H]([C@@H](O)[C@@H](c2ccccc2)c2c(O)cc(O)c3c2O[C@H](c2ccccc2)CC3=O)O1	82	> 100	82		0.37	32	> 100		> 512	64	
O=c1[nH]cc(F)c(=O)[nH]1 [FLUOROURACIL]											IC50 (LS-513): 84 µM; IC50 (COLO 205): 32 µM; IC50 (SW-620): 43 µM
O=C1C=CC[C@H]([C@@H](O)[C@H](c2ccccc2)c2c(O)cc3c(c2O)C(=O)C[C@@H](c2ccccc2)O3)O1	33	> 100	> 100	4	0.28	32	> 100	Active	> 512	16	MIC (Staphylococcus aureus [3]): > 512 µg/mL; MIC (Staphylococcus aureus [4]): 8 µg/mL; IC50 (LS-513): 1.6 µM; MIC (Staphylococcus aureus [9]): 64 µg/mL; MIC (Staphylococcus aureus [11]): 16 µg/mL; IC50 (COLO 205): 2.8 µM; fractional inhibitory concentration index (FICI) (Staphylococcus aureus [13]): 0.62; MIC (Staphylococcus aureus [14]): 64 µg/mL; fractional inhibitory concentration index (FICI) (Staphylococcus aureus [18]): 0.37; IC50 (SW-620): 2.6 µM; MIC (Staphylococcus aureus [15]): 64 µg/mL
CN(C)[C@@H]1C(O)=C(C(N)=O)C(=O)[C@@]2(O)C(O)=C3C(=O)c4c(O)cccc4[C@@](C)(O)[C@H]3C[C@@H]12 [TETRACYCLINE]											MIC (Staphylococcus aureus [3]): 128 µg/mL
N#CC(C#N)=NNc1cccc(Cl)c1								Active			
O=C1C=CC[C@@H]([C@@H](O)[C@@H](c2ccccc2)c2c(O)cc3c(c2O)C(=O)C[C@@H](c2ccccc2)O3)O1	30	63	63	8	0.14	16	90	Active	> 512	8	MIC (Staphylococcus aureus [3]): > 512 µg/mL; MIC (Staphylococcus aureus [4]): 8 µg/mL; MIC (Staphylococcus aureus [9]): 64 µg/mL; MIC (Staphylococcus aureus [17]): 16 µg/mL; MIC (Staphylococcus aureus [11]): 8 µg/mL; fractional inhibitory concentration index (FICI) (Staphylococcus aureus [13]): 0.62; MIC (Staphylococcus aureus [14]): 64 µg/mL; fractional inhibitory concentration index (FICI) (Staphylococcus aureus [18]): 0.37; MIC (Staphylococcus aureus [15]): 128 µg/mL
CN[C@@H]1[C@H](O[C@H]2[C@H](O[C@H]3[C@H](O)[C@@H](O)[C@H](N=C(N)N)[C@@H](O)[C@@H]3N=C(N)N)O[C@@H](C)[C@]2(O)C=O)O[C@@H](CO)[C@H](O)[C@H]1O [STREPTOMYCIN]											MIC (Staphylococcus aureus [9]): 32 µg/mL
O=C1C=CC[C@@H]([C@@H](O)[C@H](Oc2c(O)cc3c(c2O)C(=O)C[C@@H](c2ccccc2)O3)c2ccccc2)O1	21	41	66	8	0.18	16	> 100		> 128	16	MIC (Staphylococcus aureus [17]): 16 µg/mL
